Laboratory results as given in paper PMC9962964, “^68Ga-Labeled [Thz^14]Bombesin(7–14) Analogs: Promising GRPR-Targeting Agonist PET Tracers with Low Pancreas Uptake” (Molecules, 2023).
Read-outs that look alike come from different tables or passages of the source.

Legend:
[1] = pH 7.4
Procedure: Briefly, aliquots (2 μL) of the ^68Ga-labeled peptides were added into a 15 mL falcon tube containing 3 mL of n-octanol and 3 mL of 0.1 mol/L DPBS (pH 7.4). The mixture was vortexed for 1 min and then centrifuged at 3000 rpm for 15 min. Samples of the n-octanol (1 mL) and buffer (1 mL) layers were collected and measured in a gamma counter. LogD7.4 was calculated using the following equation: LogD7.4 = log10 [(counts in the n-octanol phase)/(counts in the buffer phase)].

[2] = Ex vivo biodistribution in PC-3 tumor-bearing mice; design: species or system NRG mice; settings: mouse; for tissue to tissue ratio at 1 h: male, NRG (NOD.Cg-Rag1^tm1Mom Il2rg^tm1Wjl/SzJ), iv, total radioactivity; for tissue uptake at 1 h: intravenous
Procedure: (§1) For biodistribution studies, the mice were injected with the radiotracer (2–4 MBq) via the tail vein as described above. For blocking, the mice were co-injected with 100 μg of [D-Phe^6,Leu-NHEt^13,des-Met^14]Bombesin(6–14). At 1 h post-injection, the mice were anesthetized through isoflurane inhalation and euthanized through CO2 inhalation. Blood was collected through a cardiac puncture, and organs/tissues of interest were collected, weighed, and counted using a Perkin Elmer (Waltham, MA, USA) Wizard2 2480 automatic gamma counter.

[3] = test system: PC-3 tumor xenografts; test: Ex vivo biodistribution in PC-3 tumor-bearing mice; design: species or system NRG mice
Procedure: as §1

[4] = 15 min post-injection
Procedure: PET/CT imaging, biodistribution, and in vivo stability studies were conducted on male NOD.Cg-Rag1^tm1Mom Il2rg^tm1Wjl/SzJ (NRG) mice, following previously published procedures. The experiments were conducted according to the guidelines established by the Canadian Council on Animal Care and approved by the Animal Ethics Committee of the University of British Columbia (protocol number A20-0113, approved on 30 September 2020). […] Mice were used for PET/CT imaging and biodistribution studies when the tumor grew to 5–8 mm in diameter over around 4 weeks.
At 15 min post-injection, mice were sedated and euthanized, and urine and blood were collected. The plasma was extracted from whole blood by adding CH3CN (500 μL), vortex, centrifugation, and the separation of supernatant. The plasma and urine samples were analyzed via radio-HPLC using the conditions for quality control of these ^68Ga-labeled radioligands (Table S3).

[5] = test system: PC-3 tumor xenografts; test: PET/CT imaging of PC-3 tumor xenografts; assay type: in vivo, NRG mice; settings: 1 h post-injection
Procedure: PET/CT imaging experiments were performed on a Siemens (Knoxville, TN) Inveon micro PET/CT scanner. The tumor-bearing mouse was injected with 3–5 MBq of ^68Ga-labeled tracer through a lateral caudal tail vein under anesthesia, followed by recovery and roaming freely in its cage during the uptake period. At 50 min post-injection, a 10 min CT scan was conducted first for the localization and attenuation correction after segmentation for reconstructing the PET images, followed by a 10 min static PET imaging acquisition.

[6] = co-injection of 100 μg [D-Phe6,Leu-NHEt13,des-Met14]Bombesin(6–14), 1 h post-injection

CC(C)C[C@H](NC(=O)[C@H](Cc1c[nH]cn1)NC(=O)CNC(=O)[C@@H](NC(=O)[C@H](C)NC(=O)[C@H](Cc1c[nH]c2ccccc12)NC(=O)[C@H](CCC(N)=O)NC(=O)[C@@H](Cc1ccccc1)NC(=O)CN1CCC(NC(=O)CN2CCN(CC(=O)O)CCN(CC(=O)O)CCN(CC(=O)O)CC2)CC1)C(C)C)C(=O)N1CSC[C@H]1C(N)=O [[^68Ga]Ga-TacBOMB2, metal not drawn]
logD [1]: -3.21 ± 0.03
tissue to tissue ratio at 1 h ([2]; tumor and bone, 1 h blocked: co-injected with 100 µg of [D-Phe6,Leu-NHEt13,des-Met14]Bombesin(6-14), n = 4, read-out: Tumor/bone uptake ratio): 8.94 ± 1.49
tissue to tissue ratio at 1 h ([2]; tumor and bone, 1 h post-injection, n = 4, read-out: Tumor/bone uptake ratio): 28.9 ± 18.3
tissue to tissue ratio at 1 h ([2]; tumor and intestines, 1 h blocked: co-injected with 100 µg of [D-Phe6,Leu-NHEt13,des-Met14]Bombesin(6-14), n = 4, read-out: Tumor/intestines uptake ratio): 3.33 ± 0.67
tissue to tissue ratio at 1 h ([2]; tumor and intestines, 1 h post-injection, n = 4, read-out: Tumor/intestines uptake ratio): 10.5 ± 3.06
tissue to tissue ratio at 1 h ([2]; tumor and kidney, 1 h blocked: co-injected with 100 µg of [D-Phe6,Leu-NHEt13,des-Met14]Bombesin(6-14), n = 4, read-out: Tumor/kidney uptake ratio): 0.47 ± 0.04
tissue to tissue ratio at 1 h ([2]; tumor and kidney, 1 h post-injection, n = 4, read-out: Tumor/kidney uptake ratio): 2.46 ± 0.33
tissue to tissue ratio at 1 h ([2]; tumor and muscle, 1 h blocked: co-injected with 100 µg of [D-Phe6,Leu-NHEt13,des-Met14]Bombesin(6-14), n = 4, read-out: Tumor/muscle uptake ratio): 7.14 ± 1.4
tissue to tissue ratio at 1 h ([2]; tumor and muscle, 1 h post-injection, n = 4, read-out: Tumor/muscle uptake ratio): 57.9 ± 32.8
tissue to tissue ratio at 1 h ([2]; tumor and pancreas, 1 h blocked: co-injected with 100 µg of [D-Phe6,Leu-NHEt13,des-Met14]Bombesin(6-14), n = 4, read-out: Tumor/pancreas uptake ratio): 6.22 ± 0.67
tissue to tissue ratio at 1 h ([2]; tumor and pancreas, 1 h post-injection, n = 4, read-out: Tumor/pancreas uptake ratio): 4.64 ± 0.77
tissue to tissue ratio at 1 h ([2]; tumor and whole blood, 1 h post-injection, n = 4, read-out: Tumor/blood uptake ratio): 16.4 ± 5.64
tissue uptake at 1 h ([2]; PC-3 tumor, 100 ug, 1 h blocked: co-injected with 100 µg of [D-Phe6,Leu-NHEt13,des-Met14]Bombesin(6-14), n = 4, read-out: PC-3 tumor uptake): 0.92 ± 0.22 %ID/g
tissue uptake at 1 h ([2]; PC-3 tumor, 1 h post-injection, n = 4, read-out: PC-3 tumor uptake): 5.95 ± 0.5 %ID/g
tissue uptake at 1 h ([2]; blood, 100 ug, 1 h blocked: co-injected with 100 µg of [D-Phe6,Leu-NHEt13,des-Met14]Bombesin(6-14), n = 4, read-out: Blood uptake): 0.55 ± 0.19 %ID/g
tissue uptake at 1 h ([2]; blood, 1 h post-injection, n = 4, read-out: Blood uptake): 0.39 ± 0.12 %ID/g
tissue uptake at 1 h ([2]; bone, 100 ug, 1 h blocked: co-injected with 100 µg of [D-Phe6,Leu-NHEt13,des-Met14]Bombesin(6-14), n = 4, read-out: Bone uptake): 0.1 ± 0.03 %ID/g
tissue uptake at 1 h ([2]; bone, 1 h post-injection, n = 4, read-out: Bone uptake): 0.26 ± 0.11 %ID/g
tissue uptake at 1 h ([2]; brain, 100 ug, 1 h blocked: co-injected with 100 µg of [D-Phe6,Leu-NHEt13,des-Met14]Bombesin(6-14), n = 4, read-out: Brain uptake): 0.02 %ID/g
tissue uptake at 1 h ([2]; brain, muscle, fat, bone, liver, stomach, heart, and spleen, 1 h post-injection, read-out: Uptake values for the brain, muscle, fat, bone, liver, stomach, heart, and spleen): < 1 %ID/g
tissue uptake at 1 h ([2]; fat, 100 ug, 1 h blocked: co-injected with 100 µg of [D-Phe6,Leu-NHEt13,des-Met14]Bombesin(6-14), n = 4, read-out: Fat uptake): 0.07 ± 0.02 %ID/g
tissue uptake at 1 h ([2]; fat, 1 h post-injection, n = 4, read-out: Fat uptake): 0.1 ± 0.03 %ID/g
tissue uptake at 1 h ([2]; heart, 100 ug, 1 h blocked: co-injected with 100 µg of [D-Phe6,Leu-NHEt13,des-Met14]Bombesin(6-14), n = 4, read-out: Heart uptake): 0.16 ± 0.04 %ID/g
tissue uptake at 1 h ([2]; heart, 1 h post-injection, n = 4, read-out: Heart uptake): 0.14 ± 0.02 %ID/g
tissue uptake at 1 h ([2]; intestines, 100 ug, 1 h blocked: co-injected with 100 µg of [D-Phe6,Leu-NHEt13,des-Met14]Bombesin(6-14), n = 4, read-out: Intestines uptake): 0.28 ± 0.07 %ID/g
tissue uptake at 1 h ([2]; intestines, 1 h post-injection, n = 4, read-out: Intestines uptake): 0.6 ± 0.12 %ID/g
tissue uptake at 1 h ([2]; kidneys, 100 ug, 1 h blocked: co-injected with 100 µg of [D-Phe6,Leu-NHEt13,des-Met14]Bombesin(6-14), n = 4, read-out: Kidneys uptake): 1.99 ± 0.59 %ID/g
tissue uptake at 1 h ([2]; kidneys, 1 h post-injection, n = 4, read-out: Kidneys uptake): 2.43 ± 0.16 %ID/g
tissue uptake at 1 h ([2]; lungs, 100 ug, 1 h blocked: co-injected with 100 µg of [D-Phe6,Leu-NHEt13,des-Met14]Bombesin(6-14), n = 4, read-out: Lungs uptake): 0.39 ± 0.1 %ID/g
tissue uptake at 1 h ([2]; lungs, 1 h post-injection, n = 4, read-out: Lungs uptake): 0.39 ± 0.1 %ID/g
tissue uptake at 1 h ([2]; pancreas, 100 ug, 1 h blocked: co-injected with 100 µg of [D-Phe6,Leu-NHEt13,des-Met14]Bombesin(6-14), n = 4, read-out: Pancreas uptake): 0.15 ± 0.03 %ID/g
tissue uptake at 1 h ([2]; pancreas, 1 h post-injection, n = 4, read-out: Pancreas uptake): 1.3 ± 0.14 %ID/g
tissue uptake at 1 h ([2]; spleen, 100 ug, 1 h blocked: co-injected with 100 µg of [D-Phe6,Leu-NHEt13,des-Met14]Bombesin(6-14), n = 4, read-out: Spleen uptake): 0.18 ± 0.05 %ID/g
tissue uptake at 1 h ([2]; spleen, 1 h post-injection, n = 4, read-out: Spleen uptake): 0.27 ± 0.1 %ID/g
tissue uptake at 1 h ([2]; stomach, 100 ug, 1 h blocked: co-injected with 100 µg of [D-Phe6,Leu-NHEt13,des-Met14]Bombesin(6-14), n = 4, read-out: Stomach uptake): 0.13 ± 0.06 %ID/g
tissue uptake at 1 h ([2]; testes, 100 ug, 1 h blocked: co-injected with 100 µg of [D-Phe6,Leu-NHEt13,des-Met14]Bombesin(6-14), n = 4, read-out: Testes uptake): 0.21 ± 0.16 %ID/g
Tumor/blood uptake ratio ([3]; 1 h blocked: co-injected with 100 µg of [D-Phe6,Leu-NHEt13,des-Met14]Bombesin(6-14), n = 4): 1.71 ± 0.18
reduction of average uptake in PC-3 tumor xenografts by co-injection of blocker [3, 6]: 85%
reduction of average uptake in pancreas by co-injection of blocker [3, 6]: 88%
reduction of average uptake in stomach by co-injection of blocker [3, 6]: 76%
intact fraction in plasma ([4]; mouse plasma, n = 3): 12.7 ± 2.93%
intact tracer in urine ([4]; mouse urine): no intact
visualization of PC-3 tumor xenografts in PET images [5]: clearly visualized
excretion pathway ([5]; PET images): primarily excreted via the renal pathway
